From PubChem BioAssay (NCI)
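These data come from cells grown in 96-well plates and exposed to compound for 48 hours at five concentrations. GI50 is the concentration that inhibits growth by half. TGI: concentration producing complete growth inhibition.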

Assays:
Test in all cases: DTP human tumour cell line panel, 48 h; in the data active = GI50 below about 0.43 µM; inactive = the rest
HL-60(TB) leukemia = test system: HL-60(TB) leukemia
SN12C renal = test system: SN12C renal
ACHN renal = test system: ACHN renal
CAKI-1 renal = test system: CAKI-1 renal
NCI-H23 lung = test system: NCI-H23 lung
OVCAR-8 ovarian = test system: OVCAR-8 ovarian
DU-145 prostate = test system: DU-145 prostate
NCI-H460 lung = test system: NCI-H460 lung
MDA-MB-435 = test system: MDA-MB-435
MOLT-4 leukemia = test system: MOLT-4 leukemia
RPMI-8226 leukemia = test system: RPMI-8226 leukemia
SK-MEL-5 melanoma = test system: SK-MEL-5 melanoma
CCRF-CEM leukemia = test system: CCRF-CEM leukemia
SF-295 CNS = test system: SF-295 CNS
HCC-2998 colon = test system: HCC-2998 colon
SW-620 colon = test system: SW-620 colon
TK-10 renal = test system: TK-10 renal
SK-MEL-28 melanoma = test system: SK-MEL-28 melanoma
K-562 leukemia = test system: K-562 leukemia
U251 CNS = test system: U251 CNS
HOP-62 NSCLC = test system: HOP-62 NSCLC
SK-MEL-2 melanoma = test system: SK-MEL-2 melanoma
IGROV1 ovarian = test system: IGROV1 ovarian
MDA-MB-231 breast = test system: MDA-MB-231 breast
SR leukemia = test system: SR leukemia
HS 578T breast = test system: HS 578T breast
MALME-3M melanoma = test system: MALME-3M melanoma
SF-539 CNS = test system: SF-539 CNS
A549 NSCLC = test system: A549 NSCLC
RXF 393 renal = test system: RXF 393 renal
NCI-H522 lung = test system: NCI-H522 lung
HCT-15 colon = test system: HCT-15 colon
HCT-116 colon = test system: HCT-116 colon
A498 renal = test system: A498 renal
LOX IMVI melanoma = test system: LOX IMVI melanoma
OVCAR-5 ovarian = test system: OVCAR-5 ovarian
SF-268 CNS = test system: SF-268 CNS
M14 melanoma = test system: M14 melanoma
T-47D breast = test system: T-47D breast
PC-3 prostate = test system: PC-3 prostate
OVCAR-4 ovarian = test system: OVCAR-4 ovarian
COLO 205 colon = test system: COLO 205 colon
SK-OV-3 ovarian = test system: SK-OV-3 ovarian
UACC-62 melanoma = test system: UACC-62 melanoma
786-0 renal = test system: 786-0 renal
UACC-257 melanoma = test system: UACC-257 melanoma
SNB-75 CNS = test system: SNB-75 CNS
KM12 colon = test system: KM12 colon
OVCAR-3 ovarian = test system: OVCAR-3 ovarian
SNB-19 CNS = test system: SNB-19 CNS
HT29 colon = test system: HT29 colon
NCI/ADR-RES ovarian = test system: NCI/ADR-RES ovarian
HOP-92 NSCLC = test system: HOP-92 NSCLC
BT-549 breast = test system: BT-549 breast
MCF7 breast = test system: MCF7 breast
NCI-H226 lung = test system: NCI-H226 lung
UO-31 renal = test system: UO-31 renal

NC(N)=NC(N)=NCCCc1ccco1
158 µM: TGI (HOP-92 NSCLC)
335 µM: TGI (HCT-116 colon)
238 µM: TGI (K-562 leukemia)
111 µM: TGI (UACC-62 melanoma)
196 µM: TGI (HOP-62 NSCLC)
inactive: GI50 (HL-60(TB) leukemia) 15.9 µM | GI50 (SN12C renal) 87.2 µM | GI50 (ACHN renal) > 500 µM | GI50 (CAKI-1 renal) 92.4 µM | GI50 (NCI-H23 lung) 463 µM | GI50 (OVCAR-8 ovarian) 31.8 µM | GI50 (DU-145 prostate) 140 µM | GI50 (NCI-H460 lung) 143 µM | GI50 (MDA-MB-435) 21.5 µM | GI50 (MOLT-4 leukemia) 28.3 µM | GI50 (RPMI-8226 leukemia) 23.7 µM | GI50 (SK-MEL-5 melanoma) > 500 µM | GI50 (CCRF-CEM leukemia) 21.8 µM | GI50 (SF-295 CNS) 163 µM | GI50 (HCC-2998 colon) > 500 µM | GI50 (SW-620 colon) 18.2 µM | GI50 (TK-10 renal) 22.7 µM | GI50 (SK-MEL-28 melanoma) 23.1 µM | GI50 (K-562 leukemia) 24.5 µM | GI50 (U251 CNS) 150 µM | GI50 (HOP-62 NSCLC) 82.7 µM | GI50 (SK-MEL-2 melanoma) 47.5 µM | GI50 (IGROV1 ovarian) > 500 µM | GI50 (MDA-MB-231 breast) 68.8 µM | GI50 (SR leukemia) 19.6 µM | GI50 (HS 578T breast) 96 µM | GI50 (MALME-3M melanoma) 18.7 µM | GI50 (SF-539 CNS) 108 µM | GI50 (A549 NSCLC) > 500 µM | GI50 (RXF 393 renal) 77.5 µM | GI50 (NCI-H522 lung) > 500 µM | GI50 (HCT-15 colon) > 500 µM | GI50 (HCT-116 colon) 90.2 µM | GI50 (A498 renal) > 500 µM | GI50 (LOX IMVI melanoma) 52.2 µM | GI50 (OVCAR-5 ovarian) 148 µM | GI50 (SF-268 CNS) 61.5 µM | GI50 (M14 melanoma) 53.6 µM | GI50 (T-47D breast) 71.7 µM | GI50 (PC-3 prostate) > 500 µM | GI50 (OVCAR-4 ovarian) 96.8 µM | GI50 (COLO 205 colon) > 500 µM | GI50 (SK-OV-3 ovarian) 142 µM | GI50 (UACC-62 melanoma) 37.8 µM | GI50 (786-0 renal) 83.5 µM | GI50 (UACC-257 melanoma) 19.2 µM | GI50 (SNB-75 CNS) 83.3 µM | GI50 (KM12 colon) 109 µM | GI50 (OVCAR-3 ovarian) 114 µM | GI50 (SNB-19 CNS) > 500 µM | GI50 (HT29 colon) > 500 µM | GI50 (NCI/ADR-RES ovarian) 66.4 µM | GI50 (HOP-92 NSCLC) 57.5 µM | GI50 (BT-549 breast) 39.6 µM | GI50 (MCF7 breast) 334 µM | GI50 (NCI-H226 lung) 98.3 µM | GI50 (UO-31 renal) 65.2 µM
119 µM: TGI (TK-10 renal)
383 µM: TGI (HS 578T breast)
66.2 µM: TGI (MALME-3M melanoma)
198 µM: TGI (MDA-MB-231 breast)
351 µM: TGI (NCI-H226 lung)
329 µM: TGI (OVCAR-3 ovarian)
253 µM: TGI (SN12C renal)
91.3 µM: TGI (SK-MEL-28 melanoma)
265 µM: TGI (786-0 renal)
> 500 µM: TGI (ACHN renal) | TGI (NCI-H23 lung) | TGI (DU-145 prostate) | TGI (NCI-H460 lung) | TGI (SK-MEL-5 melanoma) | TGI (SF-295 CNS) | TGI (HCC-2998 colon) | TGI (U251 CNS) | TGI (IGROV1 ovarian) | TGI (A549 NSCLC) | TGI (NCI-H522 lung) | TGI (HCT-15 colon) | TGI (A498 renal) | TGI (OVCAR-5 ovarian) | TGI (PC-3 prostate) | TGI (COLO 205 colon) | TGI (SK-OV-3 ovarian) | TGI (KM12 colon) | TGI (SNB-19 CNS) | TGI (HT29 colon) | TGI (MCF7 breast)
152 µM: TGI (BT-549 breast)
268 µM: TGI (SF-539 CNS) | TGI (OVCAR-4 ovarian)
48.2 µM: TGI (HL-60(TB) leukemia)
156 µM: TGI (SF-268 CNS)
247 µM: TGI (CAKI-1 renal) | TGI (NCI/ADR-RES ovarian)
125 µM: TGI (SW-620 colon)
89.8 µM: TGI (SR leukemia)
176 µM: TGI (MOLT-4 leukemia)
237 µM: TGI (RXF 393 renal)
101 µM: TGI (RPMI-8226 leukemia) | TGI (UACC-257 melanoma)
121 µM: TGI (CCRF-CEM leukemia) | TGI (LOX IMVI melanoma)
319 µM: TGI (T-47D breast)
115 µM: TGI (SK-MEL-2 melanoma)
195 µM: TGI (UO-31 renal)
190 µM: TGI (OVCAR-8 ovarian)
245 µM: TGI (SNB-75 CNS)
82.4 µM: TGI (MDA-MB-435)
123 µM: TGI (M14 melanoma)
